Where two headings read alike, the source gives them in different places.
Assays:
[1] = Binding assay: competition with ConA-FITC on glucose-terminated magnetic beads; details: relative to ConA; 2.4 μM ConA-FITC, boronic acid 2.5 μM to 20 μM, PBS pH 7.2
Experimental: The binding affinity of boronic acid derivatives to glucose was determined by competition assay using ConcanavalinA (ConA) as the competitive standard, and varying concentrations of the boronic acid derivatives. Carboxy-terminated magnetic beads were activated by suspending the beads in 100 mM 2-(N-morpholino)ethanesulfonic acid (MES) buffer (pH 4.5). Glucosamine (100 mg/mL) was conjugated to the activated magnetic beads using carbodiimide coupling with 1-ethyl-3-(3-dimethylaminopropyl)carbodiimide (EDC) as a crosslinker. The conjugation reaction was carried out in a 96 well plate. The reaction was run for 24 h. The beads were separated by placing the microplate on a magnetic separator and were washed thoroughly with PBS at pH 7.2 to remove unbound glucose, excess EDC, and N-hydroxysulfosuccinimide (Sulfo-NHS).
The glucose terminated beads were co-incubated for 1 h with 2.4 μM ConA (a known binder of carbohydrates) fluorescently tagged with fluorescein isothiocyanate (ConA-FITC), and titrated with concentrations ranging from 2.5 μM to 20 μM of each boronic acid derivative tested. The following controls were used: (A) carboxy-terminated magnetic beads (not conjugated to glucose) were treated with ConA-FITC to determine non-specific binding; and (B) glucose conjugated beads were treated with a high concentration of non-fluorescent ConA to determine maximal binding.
The wells were washed three times with PBS at pH 7.2 to remove unbound boronic acid derivatives and FITC-ConA. The beads were re-suspended in PBS and stirred for 15 min at rt before measuring FITC fluorescence (excitation: 495 nm, top emission: 520 nm; 6 flashes per well; average of n=3 wells in a Flexstation 11^384 microplate reader to quantify the amount of glucose bound to the boronic acids). The fluorescence intensity was measured and used as an indication of the amount of ConA bound to the surface of the beads, or [ConAs]. The ConA-sugar interaction was expected to be inhibited by the boronic acid derivatives, which can bind the sugar molecules and displace the bound ConA-FITC, thereby causing a decrease in fluorescence intensity of the mixture.
The binding constant of the boronic acid derivatives was calculated from the fluorescence intensity. The reduction of fluorescence intensity is related to [ConAs] by Equation 2.
[formula] The relationship between [ConAs] and the amount of boronic acid [BA] is given by Equation 3.
[formula] Simple rearrangement yields Equation 4, from which the ratio of the two equilibrium constants (KConA/KBA) can be derived.
[formula] • The concentration of sugar sites (S1) can be calculated from the intercept of a plot of 1/[ConAs] vs 1/[BA].

HeLa cells [2] = assay: MTT assay for cytotoxicity; details: 2 h
Experimental: (§1) The cytotoxicity of the boronic acid derivatives from Table 1 was studied by MTT assay. 150,000 HeLa cells were plated in 96 well plates on the night before the experiments. On the day of experiments, the cells were treated with the boronic acid derivatives at three different concentrations (40 nM, 80 nM, and 160 nM) for 2 h. At the end of the incubation, MTT assays (In-Vitro toxicology MTT based assay kit, Sigma Aldrich, MO) were performed according to the manufacturer's protocol.

NF-κB [3] = assay: NF-κB assay for inflammation (nuclear translocation of NF-κB, immunocytochemistry, PCC); details: HeLa cells; for Inflammation (PCC) 40 nM / Inflammation (PCC) 80 nM / Inflammation (PCC) 160 nM: 2 h, PCC between nuclear and cytoplasmic fraction of NF-κB
Experimental: (§2) 15,000 HeLa cells were plated in 96 well plates the night before the experiments. On the day of the experiments, the cells were treated with the boronic acids (Table 1, below) at three different concentrations (40 nM, 80 nM, and 160 nM) for 2 h. At the end of the incubation, cells were washed with phosphate buffered saline (PBS) and were fixed in 4% paraformaldehyde for 15 min and permeablized with 0.01% Triton X-100 in PBS for 10 min. The cells were washed with PBS three times. Nonspecific sites were blocked with 5% bovine serum albumin (BSA) in PBS and incubated with the Anti-NF-κB for 1 h, followed by incubation with fluorescein isothiocyanate (FITC)-labeled secondary antibody. After washing the cells at the end of the incubation, the cells were treated with 4′,6-diamidino-2-phenylindole (DAPI) for 1 min and kept at 4° C. until further analysis. Images of the cells were acquired with a Beckman-Coulter 100 automated high-throughput microscope system and analyzed using Cytseer software (Vala Sciences, CA). The co-localization of NF-κB was quantified by measuring the PCC between the nuclear and cytoplasmic fraction of the NF-κB molecule. The PCC is a measure of the overlap between the pixel intensities of the nuclear and NF-κB images of the same cell. The PCC values can range from −1 to 1. […] A negative correlation (negative PCC value) indicates an absence of nuclear translocation.

NF-κB [4] = details: human
Experimental: as §2

HeLa cells [5] = details: human
Experimental: as §1

| SMILES | Sugar Binding Affinity Log(KaBA/KaConA) [1] | MTT (% Cell Survival) 40 nM (HeLa cells [2]) | MTT (% Cell Survival) 80 nM (HeLa cells [2]) | MTT (% Cell Survival) 160 nM (HeLa cells [2]) | Inflammation (PCC) 40 nM (NF-κB [3]) | Inflammation (PCC) 80 nM (NF-κB [3]) | Inflammation (PCC) 160 nM (NF-κB [3]) | nuclear or cytoplasmic localization of NF-κB (FIG. 4 images) (NF-κB [3]; boronic acids 80 nM, 2 hrs, LPS positive control) | Inflammation (PCC) 40 nM (NF-κB [4]) | Inflammation (PCC) 80 nM (NF-κB [4]) | Inflammation (PCC) 160 nM (NF-κB [4]) | MTT (% Cell Survival) 40 nM (HeLa cells [5]) | MTT (% Cell Survival) 80 nM (HeLa cells [5]) | MTT (% Cell Survival) 160 nM (HeLa cells [5]) |
| --- | --- | --- | --- | --- | --- | --- | --- | --- | --- | --- | --- | --- | --- | --- |
| OB(O)c1ccc(O)cc1 [4-hydroxyphenylboronic acid] | −1.08 | 203.926% | 198.184% | 172.8% | −0.0665 | −0.1081 | 0.2007 | – | – | – | – | – | – | – |
| O=C(Cl)c1ccc(B2OB(c3ccc(C(=O)Cl)cc3)OB(c3ccc(C(=O)Cl)cc3)O2)cc1 [4-chlorocarbonylphenylboronic anhydride] | −2.08 | 114.54% | 107.21% | 79.46% | −0.0664 | −0.0012 | 0.09826 | – | – | – | – | – | – | – |
| OB(O)c1ccc(Cl)cc1Cl [2,4-dicholorophenylboronic acid] | −0.93 | 99.29% | 81.59% | 79.9% | −0.0502 | 0.09386 | 0.3067 | – | – | – | – | – | – | – |
| CC(C)(C)Oc1ncc(B(O)O)c(OC(C)(C)C)n1 [2,4-di-tert-butoxypyrimidin-5-ylboronic acid] | 0.008 | 100.46% | 90.60% | 71.81% | −0.0888 | 0.03106 | 0.1726 | predominantly cytoplasmic NF-κB | – | – | – | – | – | – |
| OB(O)c1ccc(Cl)cc1 [4-chlorophenylboronic acid] | – | – | – | – | – | – | – | – | −0.1494 | 0.01664 | 0 | 51.23% | 81.65% | 56.97% |
| OB(O)c1cccc(Cl)c1 [3-chlorophenylboronic acid] | −1.03 | 97.1779% | 73.129% | 38.55% | −0.0824 | 0.03311 | 0.3965 | – | – | – | – | – | – | – |
| OB(O)c1ccc(-c2ccccc2)s1 [5-phenyl-2-thienylboronic acid] | −2.3 | 100.56% | 81.24% | 86.23% | −0.0211 | −0.0701 | 0.1187 | – | – | – | – | – | – | – |
| NC(=O)c1ccc(B(O)O)cc1 [4-aminocarbonylphenylboronic acid] | −1.03 | 86.57% | 97.67% | 57.28% | −0.0838 | 0.01211 | 0 | – | – | – | – | – | – | – |
| OB(O)c1cccnc1Br [2-bromopyridine-3-boronic acid] | −2.9 | 102.96% | 94.00% | 87.88% | −0.0553 | −0.0396 | 0.1494 | – | – | – | – | – | – | – |
| O=Cc1cc(B(O)O)cs1 [5-formylthiophene-3-boronic acid] | −1.24 | 86.87% | 87.03% | 73.80% | −0.0359 | 0.00225 | 0.193 | – | – | – | – | – | – | – |
| CN(C)c1cccc(B(O)O)c1 [3-(N,N-dimethylamino)phenyl boronic acid] | −0.14 | 123.37% | 86.2247% | 85.91% | −0.1236 | −0.0401 | 0.1862 | – | – | – | – | – | – | – |
| CCCc1ccc(B(O)O)cc1 [4-propylphenylboronic acid] | −0.009 | 202.674% | 202.92% | 164.2% | −0.1402 | −0.0786 | 0.1922 | – | – | – | – | – | – | – |

Reference: patent US9278068B2, “Vesicle compositions” (Sensulin LLC, priority 2011, dated 2016)
